Results: publication PMC7265429, “Characterization of a new small-molecule inhibitor of HDAC6 in glioblastoma” (Cell Death & Disease, 2020)

System: GNS166 cells
Assay: Microarray whole-transcriptome gene expression analysis
Assay type: cell-based, human
Conditions: 5 µM SAHA vs DMSO
Description: Whole-transcriptome analysis was performed from 300 ng of RNA using HuGene-2_0-st-v1 expression array (Affymetrix), which covers 48,226 transcripts. Raw data were first checked for quality purposes through the Affymetrix® Expression Console™ Software v1.4.1 and TAC software v4.0. Then, data were normalized using the Robust Multi-array Average (RMA) and analyzed by Limma tool. Probesets with FDR-corrected p-values smaller than 0.05 were selected. Functional enrichment on Gene Ontology (GO) biological processes was performed on a smaller subset of the differentially expressed genes (corrected p-value < 0.001) by means of Broad Institute GSEA. […] The data that support this study have been deposited in NCBI´s Gene Expression Omnibus and are accessible through GEO series accession number GSE143887.

**Q.** For `O=C(CCCCCCC(=O)Nc1ccccc1)NO` [SAHA, Suberoylanilide hydroxamic acid], which “logFC, unannotated transcript” value (transcript 23067838) is on record?
**A.** 2.48

**Q.** What about the “logFC, unannotated transcript” value (transcript 23070274) of the same molecule?
**A.** 1.496

**Q.** And the “logFC, unannotated transcript” value (transcript 23074046)?
**A.** 2.262

**Q.** What about the “logFC, unannotated transcript” value (transcript 23076255) of the same molecule?
**A.** 1.316

**Q.** What about the “logFC, unannotated transcript” value (transcript 23076621) of the same molecule?
**A.** 1.363

**Q.** And the “logFC CLCN4” value (transcript TC0X00006593.hg.1)?
**A.** 1.5774

**Q.** And the “logFC GRPR” value (transcript TC0X00006686.hg.1)?
**A.** 2.105

**Q.** What about the “logFC CNKSR2” value (transcript TC0X00006758.hg.1) of the same molecule?
**A.** 1.439

**Q.** What about the “logFC TCEAL2” value (transcript TC0X00007965.hg.1) of the same molecule?
**A.** 1.805

**Q.** And the “logFC CXorf57” value (transcript TC0X00008052.hg.1)?
**A.** 2.567

**Q.** What about the “logFC RNF128” value (transcript TC0X00008054.hg.1) of the same molecule?
**A.** 2.588

**Q.** What about the “logFC TBC1D8B” value (transcript TC0X00008055.hg.1) of the same molecule?
**A.** 1.963

**Q.** And the “logFC BCORL1” value (transcript TC0X00008394.hg.1)?
**A.** 1.89

**Q.** And the “logFC SPANXB1” value (transcript TC0X00008599.hg.1)?
**A.** 3.183

**Q.** What about the “logFC SPANXA2” value (transcript TC0X00008608.hg.1) of the same molecule?
**A.** 1.528

**Q.** What about the “logFC GABRQ” value (transcript TC0X00008747.hg.1) of the same molecule?
**A.** 2.318

**Q.** What about the “logFC SPRY3” value (transcript TC0X00008881.hg.1) of the same molecule?
**A.** 1.925

**Q.** And the “logFC ANOS1” value (transcript TC0X00009025.hg.1)?
**A.** 2.202

**Q.** What about the “logFC TMEM47” value (transcript TC0X00009356.hg.1) of the same molecule?
**A.** 2.2

**Q.** What about the “logFC SYN1” value (transcript TC0X00009576.hg.1) of the same molecule?
**A.** 1.838

**Q.** What about the “logFC SLC7A3” value (transcript TC0X00009972.hg.1) of the same molecule?
**A.** 2.306

**Q.** And the “logFC PCDH19” value (transcript TC0X00010326.hg.1)?
**A.** 2.715

**Q.** What about the “logFC GPC3” value (transcript TC0X00010851.hg.1) of the same molecule?
**A.** 3.405

**Q.** What about the “logFC SPANXC” value (transcript TC0X00010990.hg.1) of the same molecule?
**A.** 2.79

**Q.** And the “logFC TSPAN7” value (transcript TC0X00011279.hg.1)?
**A.** 3.632

**Q.** And the “logFC SPANXD” value (transcript TC0X00011403.hg.1)?
**A.** 2.719

**Q.** What about the “logFC SPRY3” value (transcript TC0Y00006855.hg.1) of the same molecule?
**A.** 1.925

**Q.** And the “logFC AZIN2” value (transcript TC0100007705.hg.1)?
**A.** 2.1884

**Q.** And the “logFC SGIP1” value (transcript TC0100008631.hg.1)?
**A.** 2.667

**Q.** And the “logFC WDR63” value (transcript TC0100008897.hg.1)?
**A.** 2.0565

**Q.** What about the “logFC PLPPR4” value (transcript TC0100009181.hg.1) of the same molecule?
**A.** 3.131

**Q.** And the “logFC RIIAD1” value (transcript TC0100009969.hg.1)?
**A.** 1.761

**Q.** What about the “logFC RGS4” value (transcript TC0100010393.hg.1) of the same molecule?
**A.** 2.615

**Q.** What about the “logFC RGL1” value (transcript TC0100010874.hg.1) of the same molecule?
**A.** 1.6746

**Q.** What about the “logFC HMCN1” value (transcript TC0100010921.hg.1) of the same molecule?
**A.** 2.357

**Q.** What about the “logFC PLA2G4A” value (transcript TC0100010939.hg.1) of the same molecule?
**A.** 2.146

**Q.** What about the “logFC NFASC” value (transcript TC0100011316.hg.1) of the same molecule?
**A.** 2.226

**Q.** What about the “logFC SYT14” value (transcript TC0100011463.hg.1) of the same molecule?
**A.** 1.552

**Q.** What about the “logFC PADI2” value (transcript TC0100013076.hg.1) of the same molecule?
**A.** 2.104

**Q.** And the “logFC RAB3B” value (transcript TC0100014191.hg.1)?
**A.** 2.825

**Q.** What about the “logFC EXTL2” value (transcript TC0100015079.hg.1) of the same molecule?
**A.** 1.8773

**Q.** What about the “logFC TXNIP” value (transcript TC0100015598.hg.1) of the same molecule?
**A.** 1.6929

**Q.** What about the “logFC TDRKH” value (transcript TC0100015803.hg.1) of the same molecule?
**A.** 1.45

**Q.** What about the “logFC CRABP2” value (transcript TC0100016018.hg.1) of the same molecule?
**A.** 2.073

**Q.** And the “logFC TNFSF18” value (transcript TC0100016427.hg.1)?
**A.** 2.171

**Q.** And the “logFC NMNAT2” value (transcript TC0100016649.hg.1)?
**A.** 2.678

**Q.** What about the “logFC KCNT2” value (transcript TC0100016822.hg.1) of the same molecule?
**A.** 1.691

**Q.** What about the “logFC SUSD4” value (transcript TC0100017446.hg.1) of the same molecule?
**A.** 2.012

**Q.** And the “logFC CHML” value (transcript TC0100017948.hg.1)?
**A.** 2.064

**Q.** What about the “logFC EFNA3” value (transcript TC0100018303.hg.1) of the same molecule?
**A.** 2.427

**Q.** What about the “logFC CREG1” value (transcript TC0100018528.hg.1) of the same molecule?
**A.** 1.58

**Q.** And the “logFC ATP6V1C2” value (transcript TC0200006703.hg.1)?
**A.** 1.305

**Q.** What about the “logFC DPYSL5” value (transcript TC0200007047.hg.1) of the same molecule?
**A.** 2.839

**Q.** What about the “logFC CHAC2” value (transcript TC0200007590.hg.1) of the same molecule?
**A.** 1.314

**Q.** And the “logFC MERTK” value (transcript TC0200008894.hg.1)?
**A.** 2.244

**Q.** And the “logFC B3GALT1” value (transcript TC0200009889.hg.1)?
**A.** 2.683

**Q.** And the “logFC FAM171B” value (transcript TC0200010219.hg.1)?
**A.** 2.2716

**Q.** What about the “logFC MAP2” value (transcript TC0200010636.hg.1) of the same molecule?
**A.** 3.414

**Q.** What about the “logFC BCL11A” value (transcript TC0200012713.hg.1) of the same molecule?
**A.** 2.328

**Q.** What about the “logFC PAIP2B” value (transcript TC0200013021.hg.1) of the same molecule?
**A.** 1.841

**Q.** And the “logFC KCNH7” value (transcript TC0200014775.hg.1)?
**A.** 2.8124

**Q.** What about the “logFC SCN9A” value (transcript TC0200014819.hg.1) of the same molecule?
**A.** 2.356

**Q.** What about the “logFC LRP2” value (transcript TC0200014851.hg.1) of the same molecule?
**A.** 2.542

**Q.** And the “logFC FKBP7” value (transcript TC0200015082.hg.1)?
**A.** 2.583

**Q.** What about the “logFC CALCRL” value (transcript TC0200015193.hg.1) of the same molecule?
**A.** 2.705

**Q.** What about the “logFC SLC40A1” value (transcript TC0200015211.hg.1) of the same molecule?
**A.** 1.178

**Q.** And the “logFC MSTN” value (transcript TC0200015221.hg.1)?
**A.** 1.434

**Q.** And the “logFC STAT4” value (transcript TC0200015246.hg.1)?
**A.** 1.771

**Q.** And the “logFC EPHA4” value (transcript TC0200015815.hg.1)?
**A.** 1.855

**Q.** And the “logFC ITPR1” value (transcript TC0300006477.hg.1)?
**A.** 1.259

**Q.** What about the “logFC GRAMD1C” value (transcript TC0300008371.hg.1) of the same molecule?
**A.** 3.533

**Q.** What about the “logFC STXBP5L” value (transcript TC0300008524.hg.1) of the same molecule?
**A.** 1.686

**Q.** And the “logFC TMEM108” value (transcript TC0300008853.hg.1)?
**A.** 1.4353

**Q.** And the “logFC PLS1” value (transcript TC0300009033.hg.1)?
**A.** 1.34

**Q.** What about the “logFC MLF1” value (transcript TC0300009310.hg.1) of the same molecule?
**A.** 1.587

**Q.** And the “logFC SERPINI1” value (transcript TC0300009412.hg.1)?
**A.** 3.206

**Q.** What about the “logFC GPR160” value (transcript TC0300009459.hg.1) of the same molecule?
**A.** 1.716

**Q.** And the “logFC VGLL3” value (transcript TC0300011706.hg.1)?
**A.** 1.982

**Q.** What about the “logFC IGSF11” value (transcript TC0300012109.hg.1) of the same molecule?
**A.** 2.1969

**Q.** And the “logFC SLITRK3” value (transcript TC0300013022.hg.1)?
**A.** 1.701

**Q.** What about the “logFC LAMP3” value (transcript TC0300013336.hg.1) of the same molecule?
**A.** 2.279

**Q.** And the “logFC CLDN1” value (transcript TC0300013520.hg.1)?
**A.** 1.599

**Q.** And the “logFC CEP19” value (transcript TC0300013719.hg.1)?
**A.** 1.62

**Q.** What about the “logFC IFT80” value (transcript TC0300014074.hg.1) of the same molecule?
**A.** 1.3192

**Q.** What about the “logFC CCDC39” value (transcript TC0300014078.hg.1) of the same molecule?
**A.** 2.854

**Q.** What about the “logFC WDR19” value (transcript TC0400007280.hg.1) of the same molecule?
**A.** 1.361

**Q.** What about the “logFC GABRB1” value (transcript TC0400007419.hg.1) of the same molecule?
**A.** 2.377

**Q.** What about the “logFC CYP2U1” value (transcript TC0400008347.hg.1) of the same molecule?
**A.** 1.641
